Bridges are numbered along the chain shown (N, C = ends). Where no end group is shown, it is not given here.
Experiments:
[1] = system: alopecia pityroides; assay: Case tests: application to hair loss sites of alopecia pityroides patients; format: in vivo, human; settings: previous treatment
Description: (§1) The test subjects were patients with alopecia areata, androgenetic alopecia, postpartum alopecia, female pattern alopecia, alopecia pityroides, and senile alopecia. Diagnosis and treatment of these test subjects were carried out by the present inventors as physicians.
(§2) In general, in order to confirm the effect of an external medicine in an individual case, a method involving separate left and right applications is desirable. The separate left and right application method is a method in which, for example, an external medicine containing an active ingredient to be tested is applied to the left-hand side of an affected site, and an external medicine not containing the active ingredient is applied to the right-hand side, thus enabling a therapeutic effect to be confirmed. With regard to the test of the preparation of the present invention, a preparatory test was carried out in accordance with the separate left and right applications method. However, taking into consideration medical ethics, the preparatory test in accordance with the separate left and right applications method was minimized, and when a preparatory test was not carried out, a therapeutic effect was evaluated by comparison between that before application and that after application.
Prior to administration of the ANP gel, BNP gel, CNP gel, BNP ointment, and CNP ointment of the present invention, as is routine for dermatological diagnosis and treatment, the test subjects were interviewed regarding age, gender, history of disease, and family history of disease; when an allergic predisposition was suspected, a scratch test against the main allergens and an evaluation thereof were carried out. In dermatological diagnosis and treatment, since there are a relatively large number of patients who have strong immunoreactivity toward a specific allergen, or a disease such as atopic dermatitis that is suspected to be related to having an allergic predisposition, in order to assist diagnosis, an interview with respect to family history and previous history of allergic disease in addition to gender and age, and a scratch test toward the main allergens, are widely carried out as simple supplemental test methods.
Table 1 to Table 23 show the results of interviews with the test subjects and the results of the scratch test together with evaluation of the diagnostic findings and symptoms of the test subjects carried out in [Example 1] above.
(§3) In order to carry out evaluation objectively, photographs before and after application of the NP preparation were recorded in all cases. Photographs of some of these cases are shown in the drawings.

[2] = system: seborrheic alopecia; assay: Case tests: application to hair loss sites of seborrheic alopecia patients; format: in vivo, human; settings: previous treatment
[3] = system: androgenetic alopecia; assay: Case tests: application to hair loss sites of androgenetic alopecia patients; format: in vivo, human
Description: as §1
(§4) Clinical classification of alopecia was carried out in accordance with the Classification of the Japanese Dermatological Association, and evaluation of the severity of alopecia areata was carried out in accordance with the above-mentioned ‘USA Alopecia Areata Evaluation Guidelines’, the area of hair loss being classified using 6 grades of S0 to S5 and the hair loss site being classified using 3 grades of B0 to B2.
as §2, with “The separate left and right application method is a method in which, for example, an external medicine containing an active ingredient to be tested is applied to the left-hand side of an affected site, and an external medicine not containing the active ingredient is applied to the right-hand side, thus enabling a therapeutic effect to be confirmed.” left out
Prior to administration of the ANP gel, BNP gel, CNP gel, BNP ointment, and CNP ointment of the present invention, as is routine for dermatological diagnosis and treatment, the test subjects were interviewed regarding age, gender, history of disease, and family history of disease; when an allergic predisposition was suspected, a scratch test against the main allergens and an evaluation thereof were carried out.
as §3

[4] = system: alopecia; assay: Conclusions from case test results (all types of alopecia); format: in vivo, human; settings: external application; for Adverse events resulting from application: all cases
Description: as §1, §2, §3

[5] = system: female pattern alopecia; assay: Case tests: application to thinning hair sites of female pattern alopecia patients; format: in vivo, human; settings: previous treatment
Description: as §1
as §2, with “application. […]” for “application.”
(§5) In order to carry out evaluation objectively, photographs before and after application of the NP preparation were recorded in all cases. […]

[6] = system: cancer chemotherapy drug-induced alopecia; assay: Case tests: application to hair loss sites of cancer chemotherapy drug-induced alopecia patients; format: in vivo, human
[7] = system: alopecia areata; assay: Case tests: application to bald areas of alopecia areata patients; format: in vivo, human; settings: previous treatment of the test subject (history); one value per case
Description: as §1, §4
In general, in order to confirm the effect of an external medicine in an individual case, a method involving separate left and right applications is desirable. […] However, taking into consideration medical ethics, the preparatory test in accordance with the separate left and right applications method was minimized, and when a preparatory test was not carried out, a therapeutic effect was evaluated by comparison between that before application and that after application. […]
as §5

[8] = system: postpartum alopecia; assay: Case tests: application to hair loss sites of postpartum alopecia patients; format: in vivo, human; settings: case C18
Description: as §1
as §2, with “application. […]” for “application.”
as §5

[9] = system: androgenetic alopecia; settings: androgenetic alopecia in males; cited from earlier work
[10] = system: thin head hair; settings: applied twice a day after hair washing; cited from earlier work
[11] = previous treatment of the test subject (history), one value per case
[12] = case C35, previous treatment (interview)

For Nc1cc(N2CCCCC2)nc(N)[n+]1[O-] [minoxidil], the Effect of minoxidil ([1]; case B28) was “No effect”, the Effect of minoxidil ([2]; case A12 (=A9, B11)) was “No effect” and the Effect of minoxidil ([2]; case B22 (=A9, B11)) was “No effect”. For the same compound, the Effect of minoxidil ([3]; case B9, previous treatment) was “No effect”, the Effect of minoxidil ([3]; case C16, previous treatment) was “No effect” and the Effect of minoxidil [3, 11] was “No effect”.

With CC1(C)[C@@H](O)CC[C@]2(C)[C@H]3C(=O)C=C4[C@@H]5C[C@@](C)(C(=O)O)CC[C@]5(C)CC[C@@]4(C)[C@]3(C)CC[C@@H]12 [glycyrrhetinic acid] the “Effect of glycyrrhetinic acid” value ([2]; case A12 (=A9, B11)) was “No effect”, the “Effect of glycyrrhetinic acid” value ([2]; case B22 (=A9, B11)) was “No effect” and the “Effect of glycyrrhetinic acid” value [3, 11] was “there had been no effect”.

With CC[C@H](C)[C@@H]1NC(=O)[C@H](CCCNC(=N)N)NC(=O)[C@H](CC(=O)O)NC(=O)[C@H](CCSC)NC(=O)[C@H](CCCCN)NC(=O)[C@H](CCCNC(=N)N)NC(=O)CNC(=O)[C@H](Cc2ccccc2)NC(=O)[C@@H](NC(=O)CNC(=O)[C@H](CO)NC(=O)CNC(=O)[C@H](CCC(N)=O)NC(=O)[C@@H](NC(=O)[C@H](CCSC)NC(=O)[C@H](CCCCN)NC(=O)[C@@H]2CCCN2C(=O)[C@@H](N)CO)C(C)C)CSSC[C@@H](C(=O)N[C@@H](CCCCN)C(=O)N[C@H](C(=O)N[C@@H](CC(C)C)C(=O)N[C@@H](CCCN=C(N)N)C(=O)N[C@@H](CCCN=C(N)N)C(=O)N[C@@H](Cc2cnc[nH]2)C(=O)O)C(C)C)NC(=O)CNC(=O)[C@H](CC(C)C)NC(=O)CNC(=O)[C@H](CO)NC(=O)[C@H](CO)NC(=O)[C@H](CO)NC(=O)[C@H](CO)NC1=O [BNP, human BNP-32] the “Adverse events resulting from application” value [4] was “did not exhibit any adverse events such as local symptoms of irritation, skin atrophy, or an itching sensation”.

With CC[C@H](C)[C@@H]1NC(=O)[C@H](CCCNC(=N)N)NC(=O)[C@H](CC(=O)O)NC(=O)[C@H](CC(C)C)NC(=O)[C@H](CCCCN)NC(=O)[C@H](CC(C)C)NC(=O)CNC(=O)[C@H](Cc2ccccc2)NC(=O)[C@@H](NC(=O)CNC(=O)[C@H](CCCCN)NC(=O)[C@H](CO)NC(=O)[C@H](CC(C)C)NC(=O)CN)CSSC[C@@H](C(=O)O)NC(=O)CNC(=O)[C@H](CC(C)C)NC(=O)CNC(=O)[C@H](CO)NC(=O)[C@H](CCSC)NC(=O)[C@H](CO)NC(=O)CNC1=O [CNP, human CNP-22] the “Adverse events resulting from application” value [4] was “did not exhibit any adverse events such as local symptoms of irritation, skin atrophy, or an itching sensation”.

For COC(=O)CCC[N+](C)(C)C.[Cl-] [carpronium chloride], the “Effect of carpronium chloride” value ([1]; case A13 (=A6, C3, C4)) was “No effect”, the “Effect of carpronium chloride” value ([1]; case C30) was “No effect” and the “Effect of carpronium chloride” value ([1]; case C33) was “No effect”. For the same compound, the “Effect of carpronium chloride” value ([5]; case C19) was “No effect”, the “Effect of conventional preparation” value ([5]; cases B20, C19) was “there had been no effect” and the “Effect of carpronium chloride” value ([2]; case B21 (=A8, B8)) was “No effect”. For the same compound, the “Effect of carpronium chloride” value [6, 12] was “No effect”, the “Effect of conventional preparation” value ([6]; case C35, previous application for 6 months) was “There had been no effect” and the “Effect of carpronium chloride” value [7] was “No effect”. For the same compound, the “Effect of carpronium chloride” value ([8]; previous treatment) was “No effect” and the “Effect of conventional preparation” value ([8]; previous treatment for 5 months) was “thinning hair on the crown had not improved”.

In the case of COc1ccc2cc1Oc1ccc(cc1)C[C@H]1c3c(cc4c(c3Oc3cc5c(cc3OC)CCN(C)[C@@H]5C2)OCO4)CCN1C [cepharanthin], the Effect of cepharanthin [6, 12] is reported as “No effect” and the Effect of cepharanthin [7] is reported as “there had been no therapeutic effect”.

In the case of CC(C)(C)NC(=O)[C@H]1CC[C@H]2[C@@H]3CC[C@H]4NC(=O)C=C[C@]4(C)[C@H]3CC[C@]12C [Finasteride, finasteride], the “Proportion of patients improved” value [9] is given as “about ¼”.

For “human ANP(1-28) (SLRRSSCFGGRMDRIGAQSGLGCNSFRY; disulfide 7-23; listed as Homo sapiens)”, the “Therapeutic effect, conclusions from case test results” value ([4]; agent containing the peptide as an active ingredient) is listed as “effective only for alopecia in which there was no erythema, scale, seborrheic desquamation, etc. on the scalp” and the Hair growth [10] is listed as “downy hair-like hair growth was observed on the frontal region with 1 week of ANP administration”.

With O=C(O)CCCC[C@@H]1SC[C@@H]2NC(=O)N[C@@H]21 [biotin] the “Effect of conventional preparation” value ([3]; previous treatment, cases C39, C26, B29) was “there had been no effect”.
